From PubChem BioAssay (NCI)
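Five compound concentrations were applied to cells in 96-well plates for 48 hours; endpoints were derived by simple linear interpolation of the resulting dose-response curve. TGI: total growth inhibition.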

Legend:
Assay in all cases: growth of human tumour cells (NCI), 48 h
SNB-19 CNS = test system: SNB-19 CNS
KM20L2 colon = test system: KM20L2 colon
TK-10 renal = test system: TK-10 renal
SK-MEL-28 melanoma = test system: SK-MEL-28 melanoma
NCI-H522 lung = test system: NCI-H522 lung
LOX IMVI melanoma = test system: LOX IMVI melanoma
COLO 205 colon = test system: COLO 205 colon
HCT-15 colon = test system: HCT-15 colon
CCRF-CEM leukemia = test system: CCRF-CEM leukemia
SK-MEL-5 melanoma = test system: SK-MEL-5 melanoma
SF-268 CNS = test system: SF-268 CNS
DLD-1 colon = test system: DLD-1 colon
A498 renal = test system: A498 renal
OVCAR-8 ovarian = test system: OVCAR-8 ovarian
K-562 leukemia = test system: K-562 leukemia
OVCAR-4 ovarian = test system: OVCAR-4 ovarian
HCC-2998 colon = test system: HCC-2998 colon
RPMI-8226 leukemia = test system: RPMI-8226 leukemia
NCI-H226 lung = test system: NCI-H226 lung
MOLT-4 leukemia = test system: MOLT-4 leukemia
KM12 colon = test system: KM12 colon
EKVX NSCLC = test system: EKVX NSCLC
SNB-75 CNS = test system: SNB-75 CNS
SK-MEL-2 melanoma = test system: SK-MEL-2 melanoma
OVCAR-5 ovarian = test system: OVCAR-5 ovarian
LXFL 529 NSCLC = test system: LXFL 529 NSCLC
HL-60(TB) leukemia = test system: HL-60(TB) leukemia
DMS 273 small cell lung = test system: DMS 273 small cell lung
HT29 colon = test system: HT29 colon
MALME-3M melanoma = test system: MALME-3M melanoma
NCI-H23 lung = test system: NCI-H23 lung
DMS 114 small cell lung = test system: DMS 114 small cell lung
SW-620 colon = test system: SW-620 colon
SN12C renal = test system: SN12C renal
786-0 renal = test system: 786-0 renal
UACC-257 melanoma = test system: UACC-257 melanoma
NCI-H460 lung = test system: NCI-H460 lung
OVCAR-3 ovarian = test system: OVCAR-3 ovarian
SK-OV-3 ovarian = test system: SK-OV-3 ovarian
M14 melanoma = test system: M14 melanoma
CAKI-1 renal = test system: CAKI-1 renal
UO-31 renal = test system: UO-31 renal
SF-539 CNS = test system: SF-539 CNS
A549 NSCLC = test system: A549 NSCLC
ACHN renal = test system: ACHN renal
UACC-62 melanoma = test system: UACC-62 melanoma
SF-295 CNS = test system: SF-295 CNS
IGROV1 ovarian = test system: IGROV1 ovarian
HOP-62 NSCLC = test system: HOP-62 NSCLC
HCT-116 colon = test system: HCT-116 colon
HOP-92 NSCLC = test system: HOP-92 NSCLC
DU-145 prostate = test system: DU-145 prostate
PC-3 prostate = test system: PC-3 prostate
HS 578T breast = test system: HS 578T breast
NCI/ADR-RES ovarian = test system: NCI/ADR-RES ovarian
MCF7 breast = test system: MCF7 breast
RXF 393 renal = test system: RXF 393 renal
SR leukemia = test system: SR leukemia
BT-549 breast = test system: BT-549 breast
T-47D breast = test system: T-47D breast
MDA-N = test system: MDA-N
U251 CNS = test system: U251 CNS
MDA-MB-435 = test system: MDA-MB-435
MDA-MB-231 breast = test system: MDA-MB-231 breast

**Q.** What does the source list for `CC(C)N(C(=O)C12C3C4C1C1C2C3C41C(=O)O)C(C)C` (centres undefined)?
**A.** TGI (SNB-19 CNS): > 100 µM; TGI (KM20L2 colon): > 100 µM; TGI (TK-10 renal): > 100 µM; TGI (SK-MEL-28 melanoma): > 100 µM; TGI (NCI-H522 lung): > 100 µM; TGI (LOX IMVI melanoma): > 100 µM; TGI (COLO 205 colon): > 100 µM; TGI (HCT-15 colon): > 100 µM; TGI (CCRF-CEM leukemia): > 100 µM; TGI (SK-MEL-5 melanoma): > 100 µM; TGI (SF-268 CNS): > 100 µM; TGI (DLD-1 colon): > 100 µM; TGI (A498 renal): > 100 µM; TGI (OVCAR-8 ovarian): > 100 µM; TGI (K-562 leukemia): > 100 µM; TGI (OVCAR-4 ovarian): > 100 µM; TGI (HCC-2998 colon): > 100 µM; TGI (RPMI-8226 leukemia): > 100 µM; TGI (NCI-H226 lung): > 100 µM; TGI (MOLT-4 leukemia): > 100 µM; TGI (KM12 colon): > 100 µM; TGI (EKVX NSCLC): > 100 µM; TGI (SNB-75 CNS): > 100 µM; TGI (SK-MEL-2 melanoma): > 100 µM; TGI (OVCAR-5 ovarian): > 100 µM; TGI (LXFL 529 NSCLC): > 100 µM; TGI (HL-60(TB) leukemia): > 100 µM; TGI (DMS 273 small cell lung): > 100 µM; TGI (HT29 colon): > 100 µM; TGI (MALME-3M melanoma): > 100 µM; TGI (NCI-H23 lung): > 100 µM; TGI (DMS 114 small cell lung): > 100 µM; TGI (SW-620 colon): > 100 µM; TGI (SN12C renal): > 100 µM; TGI (786-0 renal): > 100 µM; TGI (UACC-257 melanoma): > 100 µM; TGI (NCI-H460 lung): > 100 µM; TGI (OVCAR-3 ovarian): > 100 µM; TGI (SK-OV-3 ovarian): > 100 µM; TGI (M14 melanoma): > 100 µM; TGI (CAKI-1 renal): > 100 µM; TGI (UO-31 renal): > 100 µM; TGI (SF-539 CNS): > 100 µM; TGI (A549 NSCLC): > 100 µM; TGI (ACHN renal): > 100 µM; TGI (UACC-62 melanoma): > 100 µM; TGI (SF-295 CNS): > 100 µM; TGI (IGROV1 ovarian): > 100 µM; TGI (HOP-62 NSCLC): > 100 µM; TGI (HCT-116 colon): > 100 µM

**Q.** Which TGI (HOP-92 NSCLC) does the source give for `COc1ccc(N2C(=O)C3c4[nH]c5ccccc5c4C4CCC(c5ccccc5)CC4C3C2=O)cc1` (centres undefined) here?
**A.** The TGI was 61.8 µM.

**Q.** What about the TGI (SNB-19 CNS) of the same compound?
**A.** The TGI was 43.2 µM.

**Q.** And the TGI (TK-10 renal)?
**A.** The TGI was 35.5 µM.

**Q.** And the TGI (SK-MEL-28 melanoma)?
**A.** Its TGI is over 96.2 µM.

**Q.** And the TGI (NCI-H522 lung)?
**A.** The TGI was over 44 µM.

**Q.** What about the TGI (LOX IMVI melanoma) of the same compound?
**A.** The TGI was over 54.1 µM.

**Q.** What about the TGI (DU-145 prostate) of the same compound?
**A.** Its TGI is over 100 µM.

**Q.** And the TGI (COLO 205 colon)?
**A.** Its TGI is over 78.2 µM.

**Q.** And the TGI (HCT-15 colon)?
**A.** The TGI was over 100 µM.

**Q.** What about the TGI (PC-3 prostate) of the same compound?
**A.** The TGI was over 78.5 µM.

**Q.** What about the TGI (CCRF-CEM leukemia) of the same compound?
**A.** The TGI was 53 µM.

**Q.** And the TGI (SK-MEL-5 melanoma)?
**A.** The TGI was over 87.8 µM.

**Q.** What about the TGI (SF-268 CNS) of the same compound?
**A.** Its TGI is 43.8 µM.

**Q.** And the TGI (HS 578T breast)?
**A.** Its TGI is 21.5 µM.

**Q.** And the TGI (NCI/ADR-RES ovarian)?
**A.** The TGI was over 59.3 µM.

**Q.** What about the TGI (A498 renal) of the same compound?
**A.** The TGI was 50.6 µM.

**Q.** What about the TGI (MCF7 breast) of the same compound?
**A.** Its TGI is over 100 µM.

**Q.** And the TGI (RXF 393 renal)?
**A.** The TGI was 25.6 µM.

**Q.** And the TGI (OVCAR-8 ovarian)?
**A.** Its TGI is 37.2 µM.

**Q.** And the TGI (K-562 leukemia)?
**A.** The TGI was over 41.3 µM.

**Q.** What about the TGI (OVCAR-4 ovarian) of the same compound?
**A.** Its TGI is over 49.5 µM.

**Q.** And the TGI (HCC-2998 colon)?
**A.** Its TGI is over 44.9 µM.

**Q.** And the TGI (RPMI-8226 leukemia)?
**A.** Its TGI is 78.6 µM.

**Q.** What about the TGI (NCI-H226 lung) of the same compound?
**A.** The TGI was over 96.7 µM.

**Q.** And the TGI (MOLT-4 leukemia)?
**A.** Its TGI is over 100 µM.

**Q.** What about the TGI (KM12 colon) of the same compound?
**A.** The TGI was over 100 µM.

**Q.** And the TGI (EKVX NSCLC)?
**A.** The TGI was 55.6 µM.

**Q.** What about the TGI (SNB-75 CNS) of the same compound?
**A.** Its TGI is 19.1 µM.

**Q.** And the TGI (SK-MEL-2 melanoma)?
**A.** The TGI was 53.2 µM.

**Q.** And the TGI (OVCAR-5 ovarian)?
**A.** Its TGI is over 100 µM.

**Q.** And the TGI (SR leukemia)?
**A.** Its TGI is 7.15 µM.

**Q.** And the TGI (HL-60(TB) leukemia)?
**A.** The TGI was over 34.8 µM.

**Q.** What about the TGI (HT29 colon) of the same compound?
**A.** The TGI was over 100 µM.

**Q.** And the TGI (BT-549 breast)?
**A.** The TGI was over 58.3 µM.

**Q.** And the TGI (MALME-3M melanoma)?
**A.** The TGI was 18.3 µM.

**Q.** What about the TGI (NCI-H23 lung) of the same compound?
**A.** Its TGI is over 51.7 µM.

**Q.** And the TGI (T-47D breast)?
**A.** Its TGI is over 100 µM.

**Q.** What about the TGI (SW-620 colon) of the same compound?
**A.** The TGI was over 100 µM.

**Q.** What about the TGI (SN12C renal) of the same compound?
**A.** Its TGI is over 68.4 µM.

**Q.** What about the TGI (786-0 renal) of the same compound?
**A.** The TGI was over 34.9 µM.

**Q.** What about the TGI (MDA-N) of the same compound?
**A.** The TGI was over 81.5 µM.

**Q.** What about the TGI (UACC-257 melanoma) of the same compound?
**A.** The TGI was 97.5 µM.

**Q.** And the TGI (NCI-H460 lung)?
**A.** The TGI was over 43.1 µM.

**Q.** What about the TGI (U251 CNS) of the same compound?
**A.** Its TGI is 21.1 µM.

**Q.** And the TGI (MDA-MB-435)?
**A.** The TGI was over 100 µM.

**Q.** And the TGI (OVCAR-3 ovarian)?
**A.** Its TGI is over 100 µM.

**Q.** What about the TGI (SK-OV-3 ovarian) of the same compound?
**A.** Its TGI is 54.8 µM.

**Q.** And the TGI (M14 melanoma)?
**A.** The TGI was over 94.4 µM.

**Q.** What about the TGI (CAKI-1 renal) of the same compound?
**A.** Its TGI is 36.1 µM.

**Q.** What about the TGI (UO-31 renal) of the same compound?
**A.** Its TGI is over 88.2 µM.

**Q.** And the TGI (MDA-MB-231 breast)?
**A.** Its TGI is 41.5 µM.

**Q.** What about the TGI (SF-539 CNS) of the same compound?
**A.** Its TGI is 7.4 µM.

**Q.** And the TGI (A549 NSCLC)?
**A.** Its TGI is over 78.1 µM.

**Q.** What about the TGI (ACHN renal) of the same compound?
**A.** The TGI was 47.9 µM.

**Q.** And the TGI (UACC-62 melanoma)?
**A.** Its TGI is 50.3 µM.

**Q.** And the TGI (SF-295 CNS)?
**A.** Its TGI is over 51.1 µM.

**Q.** What about the TGI (IGROV1 ovarian) of the same compound?
**A.** Its TGI is 68.8 µM.

**Q.** What about the TGI (HOP-62 NSCLC) of the same compound?
**A.** The TGI was 27.7 µM.

**Q.** What about the TGI (HCT-116 colon) of the same compound?
**A.** The TGI was over 100 µM.
